Data from patent US5283343A, “2-aryl substituted N-acetyltryptamines and process of preparing such” (priority 1991, dated 1994).
Entries after “also recorded” stand apart in the source; their conditions may differ.

Tests used:
melatonin receptor [1] = conditions: rabbit or chicken retina, Dubocovich 1985; cited from earlier work
[2] = Behavioral despair (forced swimming) test for antidepressants, albino Swiss ND/4 mice; assay type: in vivo, mouse (male albino Swiss ND/4); conditions: for Duration of Immobility: albino Swiss ND/4 mice, 30 mg/kg; for change in time of immobility (in words): albino Swiss mice, noon or midnight
Source text: (§1) Methods: Typical and atypical antidepressants reduce the time during which mice are immobile in a forced swimming test. [Porsolt et al., Arch. Int. Pharmacodun. Ther. 229:327-336 (1977)]. This test, known as the behavioral despair test, appears to be a good predictor of clinical antidepressant activity.
(§2) Male albino Swiss ND/4 mice and C3H/HeN mice (4 to 5 weeks old) were purchased from Harlam Sprague Dawley (Indianapolis, Ind.). […] The animals were kept in the same facilities at least two weeks before the experiment to allow them to adapt to a 14/10 hour light/dark cycle (lights on at 4 a.m./off at 6 p.m.).
(§3) Mice were housed in groups of 10 in polycarbonate plastic cages 137/8×85/8×51/8 inches with 88 square inches of floor space) with free access to feed (Agway 3000 rat, mouse and hamster feed) and water. During the light period, light intensity at the level of the cages was about 250 lux. The room temperature was kept constant at 22±1° C. The present series of experiments were conducted between October, 1986 and January, 1987.
(§4) The day of the experiment, mice were weighed, marked on the tail and placed in cages (8 mice per cage) as described above. Animals were transferred to the laboratory where the swim test was to be conducted at 10:00 a.m. for noon experiments and at 5:00 p.m. for evening experiments. For noon experiments, the swim test was started at 12:00 h and for midnight experiments, the swim test was started at 24:00 h. Two mice obtained from different experimental groups were tested simultaneously.
(§5) Apparatus: The apparatus consisted of two glass beakers (height: 13 cm; diameter: 11.5 cm), each placed inside a bigger glass beaker (height: 20 cm; diameter: 12.4 cm) containing 6 cm of water at 23±1° C. A non-transparent panel placed between the two cylinders prevented the mice from seeing each other. At midnight, experiments were conducted under red dim light (Kodak, filter A) provided by two photographic safety lights located at each side of the beakers.
(§6) Drugs: Mice were injected with vehicle or drugs dissolved in vehicle dissolved at the appropriate concentrations. Each mouse received 0.1 ml of liquid/10 g body weight. Drugs were dissolved immediately before the experiment. Desipramine was obtained from Sigma (St. Louis, Mo.) and dissolved in water. […] Bright light was administered with a fluorescent lamp placed one foot above the mice.
(§7) Methods The swim test was conducted as described by Porsolt et al. [Arch. Int. Pharmacodyn. 229:327-336 (1977)]. Forced swim in a narrow cylinder induced a depressed state characterized by an immobile posture, which is readily identifiable. A mouse is considered to be immobile when it ceases struggling and remains floating motionless in the water, making only those movements necessary to keep its head above water. […] Two mice that had received different treatments were observed simultaneously. Mice were dropped into the cylinders and left in the water for 6 minutes. The time of immobility was recorded during the last 4 minutes of swimming.

[3] = Behavioral despair (forced swimming) test for antidepressants, C3H/HeN mice; assay type: in vivo, mouse (C3H/HeN)
Source text: as §1, §2, §3, §4, §5, §6, §7

melatonin receptor [4] = molecular target: T1, melatonin receptor (Oryctolagus cuniculus, UniProt G1SUP2); conditions: in vitro, Dubocovich literature; cited from earlier work
T1 sequence (G1SUP2 1-362): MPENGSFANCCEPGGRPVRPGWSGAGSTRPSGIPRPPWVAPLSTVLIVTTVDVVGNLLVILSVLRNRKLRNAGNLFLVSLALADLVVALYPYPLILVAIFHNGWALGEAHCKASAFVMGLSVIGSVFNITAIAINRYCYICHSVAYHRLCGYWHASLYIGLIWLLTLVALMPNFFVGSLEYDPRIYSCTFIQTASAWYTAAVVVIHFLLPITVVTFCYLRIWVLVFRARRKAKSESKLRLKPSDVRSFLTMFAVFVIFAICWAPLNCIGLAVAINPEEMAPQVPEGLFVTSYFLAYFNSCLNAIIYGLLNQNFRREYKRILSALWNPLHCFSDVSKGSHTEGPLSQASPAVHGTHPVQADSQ

melatonin receptor [5] = molecular target: T1, melatonin receptor; test: Melatonin receptor assay: calcium-dependent/stimulation-evoked release of 3H-dopamine from rabbit retina (Dubocovich assay); assay type: biochemical; conditions: for effect on melatonin concentration-response curves / melatonin-induced inhibition of calcium-dependent 3H-DA release: compound present during S1 and S2, 0.1, 1 or 10 μM, FIGS. 3a, 3b
Method: Briefly, dopamine release was elicited in vitro by electrical field stimulation (3 Hz, 1 min. 20 mA, […].) of rabbit retinal pieces which had been prelabeled with ^3 H-dopamine. Release was determined as the percentage of total tissue radioactivity that was released during stimulation(s) minus the spontaneous release level determined before and after stimulation. Two periods of stimulation (S1 and S2) were applied 40 minutes apart in each experiment. Results are expressed as the ratio of release in S2 to release in S1 (FIG. 1.).
Drugs are added 20 minutes before the second stimulation to test their effect on the spontaneous and stimulation evoked release of ^3 H-dopamine.
First, the compounds (antagonists) were tested alone to determine their effect on spontaneous and stimulated release of dopamine (FIG. 2a.).
The compound of Example A was present during both S1 and S2 at a concentration of 0.1 μM, 1 μM, or 10 μM. Control is .largecircle..

[6] = C3H/HeN mice, 3.00 mg/kg, midnight, control 67.7 ± 2.15
[7] = C3H/HeN mice, 3.00 mg/kg, noon, control 47.7 ± 3.4
[8] = C3H/HeN mice, 10.00 mg/kg, midnight, control 67.7 ± 2.15
[9] = C3H/HeN mice, 10.00 mg/kg, noon, control 47.7 ± 3.4
[10] = C3H/HeN mice, .03 mg/kg, midnight, control 67.7 ± 2.15
[11] = C3H/HeN mice, .03 mg/kg, noon, control 47.7 ± 3.4
[12] = C3H/HeN mice, noon and midnight

| SMILES | Duration of Immobility ([2]; midnight, control 84.3 ± 11.2) | Duration of Immobility ([2]; noon, control 72.4 ± 4.9) | change in time of immobility (in words) [2] | Duration of Immobility [3, 6] | Duration of Immobility [3, 7] | Duration of Immobility [3, 8] | Duration of Immobility [3, 9] | Duration of Immobility [3, 10] | Duration of Immobility [3, 11] | change in time of immobility (in words) [3, 12] | further results |
| --- | --- | --- | --- | --- | --- | --- | --- | --- | --- | --- | --- |
| CC(=O)NCCc1c[nH]c2ccccc12 [N-acetyl tryptamine] | – | – | – | – | – | – | – | – | – | – | melatonin receptor antagonist property (melatonin receptor [1]): melatonin receptor antagonist |
| CNCCCN1c2ccccc2CCc2ccccc21 [Desipramine] | 46.0 ± 1.3 s | 38.2 ± 5.1 s | same decrease in time of immobility in the behavioral despair test at noon and at midnight | 16.1 ± 6.0 s | 20.7 ± 3.7 s | 13.2 ± 7.2 s | 20.7 ± 2.0 s | 33.2 ± 7.3 s | 46.2 ± 12.9 s | more potent to reduce the time of immobility at midnight than at noon | – |
| COc1ccc2[nH]cc(CCNC(C)=O)c2c1 [Melatonin, 5-methoxy-N-acetyl tryptamine] | – | – | neither melatonin nor the melatonin receptor antagonist N-0074 modified the time of immobility | – | – | – | – | – | – | did not change the time of immobility | Duration of Immobility ([3]; C3H/HeN mice, 30 mg/kg, Noon (In-Darkness Administration), control 29.5 ± 3.34): 48.2 ± 5.02 s; Duration of Immobility ([3]; C3H/HeN mice, 30.00 mg/kg, midnight, control 67.7 ± 2.15): 57.9 ± 9.0 s; Duration of Immobility ([3]; C3H/HeN mice, 30.00 mg/kg, noon, control 47.7 ± 3.4): 45.9 ± 18.0 s; change in time of immobility (in words) ([3]; C3H/HeN mice, noon, in-darkness administration): increased the time of immobility; inhibition of calcium-dependent release of 3H dopamine from rabbit retina (melatonin receptor [4]): inhibit dopamine release; also recorded: picomolar concentrations |
| CC(=O)NCCc1c(Cc2ccccc2)[nH]c2ccccc12 [Example N-0774, 2-benzyl-N-acetyl tryptamine] | 81.4 ± 3.9 s | 57.4 ± 8.9 s | neither melatonin nor the melatonin receptor antagonist N-0074 modified the time of immobility | 16.1 ± 5.2 s | 37.4 ± 6.6 s | 13.1 ± 3.6 s | 52.1 ± 6.8 s | 47.7 ± 4.7 s | 53.8 ± 8.8 s | reduces the time of immobility in a dose-dependent fashion, the effect being more pronounced at midnight than at noon | estimated KB (affinity constant from the Schild plot) (melatonin receptor [5]; antagonist against melatonin, rabbit retina, antagonist 0.1, 1 or 10 μM in S1 and S2): 20 µM; direct effect on spontaneous dopamine release (Sp2/Sp1) (melatonin receptor [5]; compound alone, 0.1-10 μM, FIG. 2a, listed as Example A): little or no direct effects; also recorded: did not modify the control ratio Sp2 /Sp1; direct effect on stimulated (calcium-dependent) dopamine release (S2/S1) (melatonin receptor [5]; compound alone, 0.1-10 μM, FIG. 2b, listed as Example A): little or no direct effects; also recorded: did not modify the control ratio; effect on melatonin concentration-response curves / melatonin-induced inhibition of calcium-dependent 3H-DA release (melatonin receptor [5]; listed as Example A): shifted in parallel to the right; effect on melatonin concentration-response curves / melatonin-induced inhibition of calcium-dependent 3H-DA release (melatonin receptor [5]; listed as Luzindole (N-0774)): antagonization of melatonin-induced inhibition; activity at melatonin receptors (conclusion) (melatonin receptor [5]; rabbit retina): potent, competitive antagonist at melatonin receptors; Duration of Immobility ([3]; Table 4, 10 mg/kg, midnight, control 67.7 ± 2.15, strain not given): 16.1 ± 5.20 s; change in time of immobility (in words) ([3]; midnight, compared with bright light): decreases the time of immobility |
